{
  "source": "patent US20240325429A1",
  "about": "“MINOR SPLICEOSOME TARGETING COMPOSITIONS AND THEIR USE IN CANCER TREATMENT” (UNIVERSITÄT BERN, priority 2021, published 2024)",
  "type_in_all_cases": "cell-based, human",
  "key": {"[1]": {"system": "minor spliceosome (MiS)", "assay": "Luciferase minor intron splicing reporter assay", "description": "(§1) CMV-luc2CP/ARE (major intron splicing reporter), CMV-luc2CP (empty vector backbone control) and luc1CFH4 (minor splicing intron reporter) were a kind gift from Dr. Gideon Dreyfuss (University of Pennsylvania). DNA was amplified via chemical transformation of One Shot Mach1 T1 Phage-Resistant Chemically Competent E. coli cells (Invitrogen, C862003) and Sanger sequenced.\n(§2) 24 hours prior analysis cells of each condition were co-transfected with each reporter plasmid and the empty vector backbone plasmid. In short 1.5 ul of P3000 reagent plus 0.5 ug of DNA and 1.5 ul Lipofectamine P300 were each diluted in 25 ul Opti-MEMH medium. Both mixes were pooled and incubated for 20 minutes before the solution was added to the cells. Luciferase expression was measured with the Dual-Glo® Luciferase Assay System (Promega, E2940): media was removed, 100 ul of PLB were added and cells were frozen for two hours at −20 C. After a one hour shaking step 100 ul of LAR substrate was added and Firefly luciferase expression was measured with a Tecan Infinite M200PRO reader. Values were calculated as x-fold of CMV-luc2CP expression and subsequently as the x-fold of the respective reference control."}, "[2]": {"system": "C4-2 cells and enzalutamide-resistant LNCaP (L-rENZ) cells", "assay": "Growth curves with siRNA +/- enzalutamide", "settings": "CRPC C4-2 and L-rENZ cells; compared with EZH2 plus enzalutamide", "description": "For growth experiments cells were treated with siRNA and two hours later with 20 uM enzalutamide. Enzalutamide was refreshed 3 days later.\nCells were seeded in a 6 well (400 000) and treated according to assay conditions over night. Cells were then seeded in Poly-L-Lysine coated 96-well plates (8000 cells/well, n=3 per condition) and WCM154 cells were seeded in a collagen-coated 96-well plates (5000 cells/well, n=3 per condition). Remaining cells were used for U6atac KD control via qRT-PCR. Cell viability was determined after 24, 48, 72, and 96 h with a Tecan Infinite M200PRO reader using the CellTiter-Glo® Luminescent Cell Viability Assay according to manufacturer's directions (Promega, G9243). Viability values were calculated as x-fold of cells transfected with siRNA for 0 h. Cell confluence (n=4 per condition) was determined using the Incucyte S3 instrument and the IncuCyte S3 2018B software (Essen Bioscience, Germany). Values were calculated as x-fold of timepoint 0 and then as fold-change in confluency as compared to siScrambled treated controls."}, "[3]": {"system": "major spliceosome", "assay": "Luciferase major intron splicing reporter assay", "settings": "LNCaP and C4-2 cells, long term ADT/ARSi", "description": "as §1\nas §2, with “To determine the minor/major intron splicing rate cells were seeded in white 96 well plate (Huberlab, 7.655 098) (8000/well) and treated according to assay conditions. 24” for “24”"}},
  "data": [
    {"smiles": "COc1ccc(C[C@H]2NC[C@H](O)[C@H]2OC(C)=O)cc1", "note": "[anisomycin]", "values": [
      {"measurement": "effect on minor intron splicing (luc-splicing reporter)", "setting": "[1]; LNCaP, C4-2, H660 cells and MSK8, MSK10, MSK16, PM154, PM1262 organoids, p38MAPK activation", "result": "only observed in PCa-NE cells and organoids (H660, PM154 and MSK10)"}
    ]},
    {"smiles": "C[C@]12CCC(=O)C[C@@H]1CC[C@@H]1[C@@H]2CC[C@]2(C)[C@@H](O)CC[C@@H]12", "note": "[dihydrotestosterone]", "values": [
      {"measurement": "MiS activity (luciferase reporter)", "setting": "[1]", "result": "rescued MiS activity to levels observed in L-AR alone"}
    ]},
    {"smiles": "CNC(=O)c1ccc(N2C(=S)N(c3ccc(C#N)c(C(F)(F)F)c3)C(=O)C2(C)C)cc1F", "note": "[enzalutamide]", "values": [
      {"measurement": "cell growth / proliferation", "setting": "[2]", "result": "increased CRPC growth in resistant cells"},
      {"measurement": "major splicing (luc-reporter)", "setting": "[3]", "result": "only limited effects"},
      {"measurement": "MiS activity (minor splicing luc-reporter)", "setting": "[1]; LNCaP and C4-2 cells, long term ADT/ARSi", "result": "significant increase in MiS activity"}
    ]}
  ]
}
